Measurements from patent US20180193401A1, “ANTI-OBESITY COMPOSITION COMPRISING NATURAL COMPLEX” (MEGABIOWOOD CO., LTD., priority 2017, published 2018).
Several values for one entry are separate records, joined by “and”; a condition that tells them apart may be missing. Identical values can stand only once. Marks after values point to notes of the source that are not given here.

How the values were obtained:
[1] = tested on: C57BL/6J mice; experiment: Analysis of blood lipids; format: in vivo; details: HD (high-fat diet), HCA 300 mg/kg BW/day oral, 8 weeks
From the text: (§1) Four-week-old male C57BL/6J mice were purchased from Central Lab-Animal Inc. (Seoul, Korea), adapted for a week to a normal diet in which fats accounted for 10% of the total calories, and then used for experiments. To induce obesity, a high fat diet in which fats accounted for 60% of the total calories was supplied to all groups other than a normal diet (ND) group and an ND sample group, and a normal diet in which fats accounted for 10% of the total calories was freely supplied to the ND group and the ND sample group for a total of 8 weeks. The experimental groups were divided into a total of 6 groups: a ND group, a high fat diet (HD) group, a positive control (HCA), a sample group (ND+JMW) in which a hot-water extract complex of bamboo leaves plus quince was administered to the ND group, and sample-efficacy groups (HD+JMW200 and HD+JMW400) in which a two-fold concentration of the hot-water extract complex of bamboo leaves plus quince was administered to the high fat diet group. In this case, ten mice were assigned to each group using a randomized block design, and used for experiments. To check an anti-obesity effect of the sample extract for 8 weeks (week 1 to 8) after a one-week adaptation, the test material was dissolved in distilled water, and orally administered to the positive control, the ND sample group, and the HD sample-efficacy groups once a day at a concentration of 300 mg/kg BW/day, 400 mg/kg BW/day, 200 mg/kg BW/day, and 400 mg/kg BW/day, respectively. Also, distilled water was administered to the ND group and the HD group. An amount of blood lipids (triglycerides and cholesterol) was measured in the laboratory animals treated with the hot-water extract complex of bamboo leaves plus quince.

[2] = tested on: 3T3-L1 adipocytes; experiment: Analysis of leptin production (ELISA kit); format: cell-based; details: 100 μg/mL; differentiated adipocytes 0.50±0.01
Method: An adipocyte 3T3-L1 cell line was purchased from the American Type Culture Collection (Rockville, Md., USA), and cultured at 37° C. in a DMEM (Invitrogen, USA) medium supplemented with 10% fetal bovine serum (FBS; Invitrogen, USA) in a 5% CO2 incubator. To avoid contamination, 100 units/mL of penicillin and 100 μg/mL of streptomycin (Gibco/BRL, USA) as antibiotics were added thereto, and the cells were treated with trypsin-EDTA (Gibco/BRL, USA), and sub-cultured. The medium was replaced with a fresh one every two or three days. For treatment with the extract complex, the cultured 3T3-L1 cell line was transferred to a 24-well plate (Corning, USA) at a density of 1×10^5 cells/well. After the medium was replaced with a FBS-free medium the next evening, the 3T3-L1 cell line was treated for 16 hours. Leptin is a hormone that is produced by an obesity gene in adipocytes. Thus, a blood leptin concentration has been widely used for obesity research as an indicator of body fat mass because a secretion rate of leptin increases with an increase in fat accumulated in the adipocytes. […] 3T3-L1 adipocytes were treated with each of the 30% ethanol extract complex of bamboo leaves plus quince and the hot-water extract complex of bamboo leaves plus quince at concentrations of 50 and 100 μg/mL, and a concentration of leptin was then measured using an ELISA kit.

[3] = tested on: C57BL/6J mice; experiment: Body weight gain, food intake and food efficiency ratio, 8-week oral administration; format: in vivo; details: HD (high-fat diet), HCA 300 mg/kg BW/day oral, 8 weeks
From the text: as §1, with “After” for “An amount of blood lipids (triglycerides and cholesterol) was measured in the”, “were adapted for a week,” for “treated with”, “quince was orally administered to the C57BL/6J mice for 8 weeks to observe a change in body weight.” for “quince.”

[4] = tested on: C57BL/6J mice; experiment: Weight of adipose tissues (EAT, BAT); format: in vivo; details: HD (high-fat diet), HCA 300 mg/kg BW/day oral, 8 weeks
From the text: as §1, with “[…] The weights” for “To check an anti-obesity effect”, “adipose tissues” for “sample extract for 8 weeks (week 1 to 8) after a one-week adaptation, the test material was dissolved in distilled water, and orally administered to the positive control, the ND sample group, and the HD sample-efficacy groups once a day at a concentration of 300 mg/kg BW/day, 400 mg/kg BW/day, 200 mg/kg BW/day, and 400 mg/kg BW/day, respectively. Also, distilled water was administered to the ND group and the HD group. An amount of blood lipids (triglycerides and cholesterol) was measured”, “quince were measured.” for “quince.”

[5] = tested on: 3T3-L1 adipocytes; experiment: Analysis of triglyceride content; format: cell-based; details: 100 μg/mL; differentiated adipocytes 126.2±1.25
Method: (§2) An adipocyte 3T3-L1 cell line was purchased from the American Type Culture Collection (Rockville, Md., USA), and cultured at 37° C. in a DMEM (Invitrogen, USA) medium supplemented with 10% fetal bovine serum (FBS; Invitrogen, USA) in a 5% CO2 incubator. To avoid contamination, 100 units/mL of penicillin and 100 μg/mL of streptomycin (Gibco/BRL, USA) as antibiotics were added thereto, and the cells were treated with trypsin-EDTA (Gibco/BRL, USA), and sub-cultured. The medium was replaced with a fresh one every two or three days. For treatment with the extract complex, the cultured 3T3-L1 cell line was transferred to a 24-well plate (Corning, USA) at a density of 1×10^5 cells/well. After the medium was replaced with a FBS-free medium the next evening, the 3T3-L1 cell line was treated for 16 hours. 3T3-L1 adipocytes were treated with each of the 30% ethanol extract complex of bamboo leaves plus quince and the hot-water extract complex of bamboo leaves plus quince at concentrations of 50 and 100 μg/mL to measure a concentration of triglycerides.

[6] = tested on: 3T3-L1 adipocytes; experiment: Analysis of glycerol release; format: cell-based; details: 100 μg/mL; differentiated adipocytes 18.10±2.28
Method: as §2, with “measure an amount of glycerol production. An amount of glycerol production in undifferentiated pre-adipocytes was 2.46±1.34 μg/mL, an amount of glycerol production in differentiated adipocytes was 18.10±2.28 μg/mL, and an amount of glycerol production in the positive control was 32.09±1.23 μg/mL when HCA was present at” for “measure”, “100 μg/m L.” for “triglycerides.”

With `O=C(O)CC(O)(C(=O)O)C(O)C(=O)O` (stereo not shown) [HCA, hydroxycitric acid] the HDL-cholesterol [1] was 75.66 mg/dL and 75.66 ± 8.11^b mg/dL, the LDL-cholesterol [1] was 131.06 ± 6.82^b mg/dL and the “Total cholesterol (blood)” value [1] was 241.53 mg/dL and 241.53 ± 8.87^b mg/dL. For the same compound, the “Triglyceride (blood)” value [1] was 174.08 mg/dL and 174.08 ± 3.49^b mg/dL, the LDL-cholesterol ([1]; listed as positive control) was 131.06 mg/dL and the “amount of leptin production” value [2] was 0.39 ± 0.01 ng/mL. The Final body weight [3] was 33.50 ± 3.58^b g, the Food intake [3] was 3.79 g/day and 3.79 ± 0.05^c g/day and the Weight gain [3] was 12.83 g/8 weeks and 12.83 ± 0.94^b g/8 weeks. For the same compound, the “BAT (brown adipose tissue) weight” value [4] was 0.09 ± 0.02^b g, the “EAT (epididymal adipose tissue) weight” value [4] was 1.70 g and 1.70 ± 0.14^b g and the triglyceride content [5] was 98.01±1.24 μg/mg protein. For the same compound, the “amount of glycerol production” value [6] was 32.09 ± 1.23 µg/mL.
